Reference: patent publication US11078216B2, “Bisaryl amides as NRF2 activators” (GLAXOSMITHKLINE INTELLECTUAL PROPERTY DEVELOPMENT LIMITED, priority 2016, dated 2021)

System: NRF2 (NQO1 activity as marker for NRF2 activation), BEAS-2B cells
Assay: BEAS-2B NQO1 MTT Assay
Format: cell-based
Conditions: Homo sapiens, EC50 of NQO1 specific activity induction, 48 hours incubation, read-out: EC50
Text: NAD(P)H:quinone oxidoreductase 1 (NQO1), also called DT diaphorase, is a homodimeric FAD-containing enzyme that catalyzes obligatory NAD(P)H-dependent two-electron reductions of quinones and protects cells against the toxic and neoplastic effects of free radicals and reactive oxygen species arising from one-electron reductions. The transcription of NQO1 is finely regulated by NRF2, and thus NQO1 activity is a good marker for NRF2 activation. On day one, frozen BEAS-2B cells (ATCC) are thawed in a water bath, counted, and re-suspended at a concentration of 250,000 cells/mL. Fifty microliters of cells are plated in 384 well black clear-bottomed plates. Plates are incubated at 37° C., 5% CO2 overnight. On day two, plates are centrifuged and 50 nL of compound or controls are added to the cells. Plates are then incubated at 37° C., 5% CO2 for 48 hours. On day four, medium is aspirated from the plate and crude cell lysates are made by adding 13 uL of 1× Cell Signaling Technologies lysis buffer with 1 Complete, Mini, EDTA-free Protease Inhibitor Tablet (Roche) for each 10 mL of lysis buffer. After lysis plates are incubated for 20 minutes at room temperature. Two microliters of lysate are removed for use in Cell Titer Glo assay (Promega) and MTT cocktail is prepared (Prochaska et. al. 1998) for measurement of NQO1 activity. Fifty microliters of MTT cocktail is added to each well, plate is centrifuged, and analyzed on an Envision plate reader (Perkin Elmer) using Absorbance 570 nm label for 30 minutes. Product formation is measured kinetically and the EC50 of NQO1 specific activity induction is calculated by plotting the change in absorbance (Delta OD/min) versus the log of compound concentration followed by 3-parameter fitting.
EC50s<1 nM (+++++), EC50s 1 nM-10 nM (++++), EC50s 10 nM-100 nM (+++), EC50s 100 nM-1 uM (++), EC50s 1-10 uM (+), EC50s>10 uM (−), or were not determined (ND).

CC[C@@H]1CN(Cc2cc([C@H](CC(=O)NCCCOC)c3ccc4c(nnn4CC)c3C)ccc2C)S(=O)(=O)c2cccnc2O1 [Example 34, (S)-3-(3-(((R)-4-Ethyl-1,1-dioxido-3,4-dihydro-2H-pyrido[2,3-b][1,4,5]oxathiazepin-2-yl)methyl)-4-methylphenyl)-3-(1-ethyl-4-methyl-1H-benzo[d][1,2,3]triazol-5-yl)-N-(3-methoxypropyl)-propanamide]
EC50: 1000 to 10000 nM

CC[C@@H]1CN(Cc2cc([C@H](CC(=O)NCC(N)=O)c3ccc4c(nnn4CC)c3C)ccc2C)S(=O)(=O)c2cccnc2O1 [Example 35, (S)—N-(2-Amino-2-oxoethyl)-3-(3-(((R)-4-ethyl-1,1-dioxido-3,4-dihydro-2H-pyrido[2,3-b][1,4,5]oxathiazepin-2-yl)methyl)-4-methylphenyl)-3-(1-ethyl-4-methyl-1H-benzo[d][1,2,3]triazol-5-yl)propanamide]
EC50: 1000 to 10000 nM

CC[C@@H]1CN(Cc2cc([C@H](CC(=O)NCCNC)c3ccc4c(nnn4CC)c3C)ccc2C)S(=O)(=O)c2cccnc2O1 [Example 36, (S)-3-(3-(((R)-4-Ethyl-1,1-dioxido-3,4-dihydro-2H-pyrido[2,3-b][1,4,5]oxathiazepin-2-yl)methyl)-4-methylphenyl)-3-(1-ethyl-4-methyl-1H-benzo[d]-[1,2,3]triazol-5-yl)-N-(2-(methylamino)ethyl)propanamide]
EC50: 100 to 1000 nM

CC[C@@H]1CN(Cc2cc([C@H](CC(=O)NCC3CCCO3)c3ccc4c(nnn4CC)c3C)ccc2C)S(=O)(=O)c2cccnc2O1 (stereo partly drawn) [Example 37, (3S)-3-(3-(((R)-4-Ethyl-1,1-dioxido-3,4-dihydro-2H-pyrido[2,3-b][1,4,5]oxathiazepin-2-yl)methyl)-4-methylphenyl)-3-(1-ethyl-4-methyl-1H-benzo[d][1,2,3]triazol-5-yl)-N-((tetrahydrofuran-2-yl)methyl)propanamide]
EC50: 100 to 1000 nM

CC[C@@H]1CN(Cc2cc([C@H](CC(=O)NCCF)c3ccc4c(nnn4CC)c3C)ccc2C)S(=O)(=O)c2cccnc2O1 [Example 38, (S)-3-(3-(((R)-4-Ethyl-1,1-dioxido-3,4-dihydro-2H-pyrido[2,3-b][1,4,5]oxathiazepin-2-yl)methyl)-4-methylphenyl)-3-(1-ethyl-4-methyl-1H-benzo[d][1,2,3]triazol-5-yl)-N-(2-fluoroethyl)propanamide]
EC50: 100 to 1000 nM

CC[C@@H]1CN(Cc2cc([C@H](CC(=O)NCC(=O)NC)c3ccc4c(nnn4CC)c3C)ccc2C)S(=O)(=O)c2cccnc2O1 [Example 39, (S)-3-(3-(((R)-4-Ethyl-1,1-dioxido-3,4-dihydro-2H-pyrido[2,3-b][1,4,5]oxathiazepin-2-yl)methyl)-4-methylphenyl)-3-(1-ethyl-4-methyl-1H-benzo[d][1,2,3]triazol-5-yl)-N-(2-(methylamino)-2-oxoethyl)propanamide]
EC50: 1000 to 10000 nM

CCOCCNC(=O)C[C@@H](c1ccc(C)c(CN2C[C@@H](CC)Oc3ncccc3S2(=O)=O)c1)c1ccc2c(nnn2CC)c1C [Example 40, (S)-N-(2-Ethoxyethyl)-3-(3-(((R)-4-ethyl-1,1-dioxido-3,4-dihydro-2H-pyrido[2,3-b][1,4,5]oxathiazepin-2-yl)methyl)-4-methylphenyl)-3-(1-ethyl-4-methyl-1H-benzo[d][1,2,3]triazol-5-yl)propanamide]
EC50: 100 to 1000 nM

CC[C@@H]1CN(Cc2cc([C@H](CC(=O)NCCOC)c3ccc4c(nnn4CC)c3C)ccc2C)S(=O)(=O)c2cccnc2O1 [Example 41, (S)-3-(3-(((R)-4-Ethyl-1,1-dioxido-3,4-dihydro-2H-pyrido[2,3-b][1,4,5]oxathiazepin-2-yl)methyl)-4-methylphenyl)-3-(1-ethyl-4-methyl-1H-benzo[d][1,2,3]triazol-5-yl)-N-(2-methoxyethyl)propanamide]
EC50: 100 to 1000 nM
